For assay [1], the system named is Penicillium expansum. The assay is described as follows: Protection of wounded apples against postharvest rot caused by Penicillium expansum (lesion diameter, percentage of protection). Type of assay: in vivo. Details: Average infection: unit not given here. The procedure: Apples (Malus domestica Borkh cv. Golden) were harvested from commercial orchards maintained with standard cultural practices in Belgium and placed in regular long term storage. Commercial class I fruits were used. They were bought from wholesale dealers and stored in a cold room at 4±1° C. for maximum 15 days before use.
Penicillium expansum (blue mould) strains were initially isolated from apples in Gembloux Belgium. Conidia from pathogen were put in suspension in a glycerol solution (25%) and stored at −70° C. Starting from this stored material, the fungal strain was transferred to PDA medium at 25° C. Conidial suspensions were prepared in an aqueous sterile solution of Tween 20 (0.05%), and were adjusted to the required concentration (10^6 spores/ml) using a Bürker cell.
The antagonistic yeast strain was Candida oleophila Montrocher deposited under number 40564 at the BBCM™/MUCL Culture Collection of the Mycotheque de l'Universite Catholique de Louvain, hereinafter designated as “strain 0”.
This antagonistic yeast strain was isolated from apple surface and stored at −70° C. in a glycerol solution (25%). Before use, the yeast strain was subcultured three times successively at 24 hours intervals on PDA (Potato Dextrose Agar). At the third generation, yeast cells were removed from the culture medium and suspended in isotonic water (NaCl 0.85%). Suspension concentrations were adjusted to the required values after the establishment of a regression line in relation with the micro-organisms suspension absorbance (at 595 nm) and the number of colony forming units (cfu) of the same suspension spread onto PDA.
Fruits were disinfected by dipping for 2 minutes in sodium hypochlorite (10% of the commercial product). They were rinsed in sterile water and dried out under laminar flux before being wounded by removing 4 mm diameter and 2-3 mm deep blocks of tissue from three sites 4-5 cm apart along one side of the surface of the fruits.
The wounds were treated by application of 40 μl of compositions of the state of the art or compositions according to the invention.
After a 24 h at 20° C. incubation period in plastic boxes, the wounds were inoculated with 40 μl of the respective conidial suspensions of the pathogens. The fruits were incubated at 25° C.
[…] At least five fruits (15 wounds) were used per treatment. Most of the time, 15 fruits and 45 wounds were used per treatment.
The percentage of protection provided by the different treatments was calculated from the diameter of lesion caused by the fruit rot agent after the incubation time using the following formula: […]
wherein Y is the percentage of protection; DT is the mean diameter of lesions for the untreated control and DX is the mean diameter of lesions for the treated fruits.
The effect of the compositions according to the invention against postharvest apple rots caused by P. expansum was evaluated under controlled conditions.
(§1) The apples were wounded as described in Example 2 and treated by application of compositions comprising a salt according to the invention and 10^5 cfu C. oleophila, or compositions of the state of the art.
After incubation, the wounds were inoculated with Penicillum expansum. The fruits are further incubated. […] The percentage of protection provided by the different treatments was calculated as described in Example 2.
as §1

Assay [2] has as its system Botrytis cinerea. The assay is described as follows: Protection of wounded apples against Botrytis cinerea (lesion diameter, percentage of protection). The note with it: for Average infection / Efficiency %: Table 10, salt + strain O 10^5, CaCl2 20 g/l, CG 2 g/l, CGt 1.805 g/l, TC 0.848 g/l, PC 0.964 g/l, 5 days; for results of combination of salt with C. oleophila, in words (conclusions): salt combined with C. oleophila, apples, salts tested only in Example 5. Type of assay: in vivo.

[3] abbreviates: Table 6a, salt + strain O 10^5, CG 2 g/l, TC 0.87 g/l, CCa 0.47 g/l, CL 1.34 g/l, CLG 1.3 g/l, CA 1.96 g/l, 7 days.
[4] abbreviates: Table 6b, salt + strain O 10^5, CG 2 g/l, TC 0.87 g/l, CCa 0.47 g/l, CL 1.34 g/l, CLG 1.3 g/l, CA 1.96 g/l, 7 days.
Setting [5] is: Table 8, salt + strain O 10^5, CaCl2 20 g/l, CG 2 g/l, CCa 0.47 g/l, CBC 0.762 g/l, CPT 0.486 g/l, CPM 1.485 g/l, 7 days.
[6] abbreviates: Table 9, salt + strain O 10^5, CaCl2 20 g/l, CG 2 g/l, CCa 0.47 g/l, CBC 0.762 g/l, CPT 0.486 g/l, CPM 1.485 g/l, 11 days.
The mark [7] stands for this setting: salt + strain O 10^5 cfu/ml compared with strain O alone.
Where [8] appears, read: salt combined with C. oleophila, apples.
The mark [9] stands for this setting: Table 7, salt + strain O 10^5, CaCl2 20 g/l, CG 2 g/l, TC 0.87 g/l, CCA 0.47 g/l.
Where [10] appears, read: Table 3, first series, CG 2 g/l + strain O 10^5 cfu/ml, 7 days.
The mark [11] stands for this setting: Table 4, second series, CG 2 g + strain O 10^5 cfu/ml, 7 days.
Setting [12] is: Table 5, third series, CG 2 g + strain O 10^5 cfu/ml, 7 days.

This is an account of results in patent US20080160101A1, “Composition For Use Against One Or More Pathogens” (Bionext, priority 2004, published 2008).

Values joined by “and” are separate entries in the source; they are usually repeats but may differ in a detail not shown here. Identical values can stand only once. “Also recorded” adds a separate entry of the source.

`O=C([O-])[O-].[Ca+2]` [CCa, calcium carbonate]: in assay [1] (in vivo), the Efficiency % is 77.9% and 92.8% and 97.2% and 88.6% and 85.1%; the “protection against P. expansum, in words” value is listed as “good protection”; the “results of combination of salt with C. oleophila, in words (conclusions)” value (“results of combination of salt” for short) was “Very good results”.

On to `N[C@@H](CCC(=O)[O-])C(=O)[O-].[Ca+2]` [CGt, calcium glutamate], for which, in assay [2], the Average infection was found to be 0.8 and the Efficiency % worked out at 51.3%.

Regarding `CC(O)C(=O)[O-].CC(O)C(=O)[O-].[Ca+2]` (stereo not drawn) [CL, calcium lactate], in assay [1] (setting [3]), the Average infection was found to be 7.7 and the Efficiency % came out at 58.1%. Moreover, in assay [1] (setting [4]), the Average infection worked out at 6.06 and the Efficiency % was 82.5%. Moreover, in assay [1] (in vivo), the “results of combination of salt” value is “Very good results”.

As to `O=[N+]([O-])[O-].O=[N+]([O-])[O-].[Ca+2]` [CN, Calcium Nitrate, reference compound], in assay [1] (in vivo), the Average infection is 7.6 and 10.9; the “protection against P. expansum, in words” value was “less efficient”.

Consider `O=P([O-])(O)O.O=P([O-])(O)O.[Ca+2]` [CPM, calcium phosphate monobasic], for which, in assay [1] (setting [5]), the Average infection is recorded as 0.1 and the Efficiency % was found to be 94.4%. In assay [1] (setting [6]), the Average infection came out at 0.7 and the Efficiency % was found to be 86.6%. Moreover, the “protection against P. expansum, in words” value in assay [1] (setting [7]) is on record as “good protection”. Also, the “results of combination of salt” value in assay [1] (setting [8]) was “Very good results”.

On to `O=P([O-])([O-])[O-].O=P([O-])([O-])[O-].[Ca+2].[Ca+2].[Ca+2]` [CPT, calcium phosphate tribasic], for which, in assay [1] (setting [5]), the Average infection amounted to 0.4 and the Efficiency % came to 84.1%. Also, in assay [1] (setting [6]), the Average infection worked out at 0.9 and the Efficiency % was 82.1%. In addition, in assay [1] (setting [7]), the “protection against P. expansum, in words” value is on record as “good protection”. Moreover, the “results of combination of salt” value in assay [1] (setting [8]) is given as “Very good results”.

Consider `[Ca+2].[Cl-].[Cl-]` [CaCl2, reference compound], for which the Average infection in assay [2] came to 0.3; in assay [1] (setting [9]), 0.7; in assay [1] (setting [5]), 0.3; in assay [1] (setting [6]), 0.6. The Efficiency % in assay [2] came out at 82.4%; in assay [1] (setting [9]), 97.4%; in assay [1] (setting [5]), 87.6%; in assay [1] (setting [6]), 87.7%.

Take `O=C([O-])CC(O)(CC(=O)[O-])C(=O)[O-].[K+].[K+].[K+]` [PC, potassium citrate]: in assay [2], the Average infection was 0.5; the Efficiency % amounted to 66.4%; the “results of combination of salt” value is given as “Very good results”.

As to `O=C([O-])CC(O)(CC(=O)[O-])C(=O)[O-].O=C([O-])CC(O)(CC(=O)[O-])C(=O)[O-].[Ca+2].[Ca+2].[Ca+2]` [TC, tricalcium citrate], the Average infection in assay [2] is on record as 0.3; in assay [1] (setting [3]) it was 2.8; in assay [1] (setting [4]), 6.67; in assay [1] (setting [9]) it was 1.0. In addition, the Efficiency % in assay [2] was 78.9%; in assay [1] (setting [3]), 84.8%; in assay [1] (setting [4]) it was 83.3%; in assay [1] (setting [9]) it was 96.4%. In addition, the “results of combination of salt” value in assay [1] (in vivo) is “Very good results”.

For `N[C@@H](CCC(=O)[O-])C(=O)[O-].[K+].[K+]` [potassium glutamate], the “results of combination of salt” value in assay [2] is “Very good results”.

In the case of calcium ascorbate, in assay [1] (setting [3]), the Average infection is 5.4 and the Efficiency % was found to be 70.9%. Also, in assay [1] (setting [4]), the Average infection is listed as 5.31 and the Efficiency % is 86.7%. Moreover, the “results of combination of salt” value in assay [1] (in vivo) is given as “Very good results”.

Take calcium bicarbonate [CBC]: in assay [1] (setting [5]), the Average infection was determined as 0.5 and the Efficiency % was 76.5%. In assay [1] (setting [6]), the Average infection came out at 2.1 and the Efficiency % came out at 59.0%. Further, the “protection against P. expansum, in words” value in assay [1] (setting [7]) is “good protection”. Also, the “results of combination of salt” value in assay [1] (setting [8]) is “Very good results”.

With calcium gluconate [CG], the Efficiency % was 60.7% in assay [2]; 73.8% in assay [1] (setting [3]); 74.2% in assay [1] (setting [4]); 93.5% in assay [1] (setting [9]); 77.4% in assay [1] (setting [5]); 70.5% in assay [1] (setting [6]). For the same compound, the Average infection in assay [1] (setting [10]) came out at 1.5; in assay [1] (setting [11]), 1.2; in assay [1] (setting [12]) it was 2.7; in assay [1] (setting [3]), 4.8; in assay [1] (setting [4]), 6.50; in assay [1] (setting [9]), 1.7. The Average infection in assay [1] (setting [5]) turned out to be 0.5; in assay [1] (setting [6]) it was 1.5. In addition, the “Protection Efficiency %” value in assay [1] (setting [10]) turned out to be 87.3%; in assay [1] (setting [11]), 90.7%; in assay [1] (setting [12]), 79.3%. For the same compound, the “protection against P. expansum, in words” value in assay [1] (setting [7]) was “improved the protection; also recorded: better and enhanced efficacy”; in assay [1] (salt + strain O 10^5 cfu/ml compared with strain O alone, listed as calcium gluconate) it was “good protection”. Moreover, the “results of combination of salt” value in assay [1] (setting [8]) was “Very good results”.

For the compound calcium lactogluconate [CLG], in assay [1] (setting [3]), the Average infection is 5.6 and the Efficiency % came to 69.4%. In assay [1] (setting [4]), the Average infection came out at 6.21 and the Efficiency % was determined as 86.3%. In assay [1] (setting [8]), the “results of combination of salt” value is recorded as “Very good results”.
